Source: US10118935B2, “Melampomagnolide B dimers” (priority 2014, dated 2018)
Like-named read-outs stand apart in the source and are kept apart here.

Columns and labels:
SF-295 = test: NCI 60 cell line five dose, CNS Cancer
SK-MEL-2 = test: NCI 60 cell line five dose, Melanoma
MDA-MB-468 = test: NCI 60 cell line five dose, Breast Cancer
T-47D = test: NCI 60 cell line five dose, Breast Cancer
DU-145 = test: NCI 60 cell line five dose, Prostate Cancer
HS 578T = test: NCI 60 cell line five dose, Breast Cancer; conditions: HS578T
HOP-92 = test: NCI 60 cell line five dose, Non-Small Cell Lung Cancer
NCI-H226 = test: as above
A549/ATCC = test: as above
786-0 = test: NCI 60 cell line five dose, Renal Cancer
HT29 = test: NCI 60 cell line five dose, Colon Cancer
OVCAR-8 = test: NCI 60 cell line five dose, Ovarian Cancer
TK-10 = test: NCI 60 cell line five dose, Renal Cancer
OVCAR-3 = test: NCI 60 cell line five dose, Ovarian Cancer
LOX IMVI = test: NCI 60 cell line five dose, Melanoma
NCI/ADR-RES = test: NCI 60 cell line five dose, Ovarian Cancer; conditions: NCI/ADR-
NCI-H23 = test: NCI 60 cell line five dose, Non-Small Cell Lung Cancer
M9ENL AML cell lines = conditions: read-out: LC50; M9ENL AML cell lines; after 24 hours of drug exposure
MCF7 = test: NCI 60 cell line five dose, Breast Cancer
M14 = test: NCI 60 cell line five dose, Melanoma
SN12C = test: NCI 60 cell line five dose, Renal Cancer
MOLT-4 = test: NCI 60 cell line five dose, Leukemia
RXF 393 = test: NCI 60 cell line five dose, Renal Cancer

## C=C1C(=O)O[C@H]2[C@H]1CC/C(COC(=O)NCCCCCCCCNC(=O)OC/C1=C/CC[C@@]3(C)O[C@H]3[C@H]3OC(=O)C(=C)[C@@H]3CC1)=C\CC[C@@]1(C)O[C@@H]21 [JVM 3-62, bis(((1aR,7aS, 10aS, 10bS, E)-1a-Methyl-8-methylene-9-oxo-1a,2,3,6,7,7a,8,9,10a,10b-decahydrooxireno[2′,3′:9,10]cyclodeca[1,2-b]furan-5-yl)methyl)octane-1,8-diyldicarbamate]
SF-295; Log10 Concentration −4.0
  Percent Growth: −87%
SF-295; Log10 Concentration −5.0
  Percent Growth: −40%
SF-295; Log10 Concentration −6.0
  Percent Growth: 87%
SF-295; Log10 Concentration −7.0
  Percent Growth: 92%
SF-295; Log10 Concentration −8.0
  Percent Growth: 85%
SF-295; molar
  GI50: 1950 nM
  TGI: 4.82E−6
SF-295; read-out: LC50, molar
  CC50: 16200 nM
SK-MEL-2; Log10 Concentration −4.0
  Percent Growth: −68%
SK-MEL-2; Log10 Concentration −5.0
  Percent Growth: −45%
SK-MEL-2; Log10 Concentration −6.0
  Percent Growth: 36%
SK-MEL-2; Log10 Concentration −7.0
  Percent Growth: 100%
SK-MEL-2; Log10 Concentration −8.0
  Percent Growth: 92%
SK-MEL-2; molar
  GI50: 601 nM
  TGI: 2.79E−6
HL-60(TB); Log10 Concentration −4.0
  Percent Growth: −39%
HL-60(TB); Log10 Concentration −5.0
  Percent Growth: −37%
HL-60(TB); Log10 Concentration −6.0
  Percent Growth: −6%
HL-60(TB); Log10 Concentration −7.0
  Percent Growth: 92%
HL-60(TB); Log10 Concentration −8.0
  Percent Growth: 103%
HL-60(TB); molar
  GI50: 268 nM
HL-60(TB); read-out: LC50, molar
  CC50: > 100000 nM
MDA-MB-468; Log10 Concentration −4.0
  Percent Growth: −70%
MDA-MB-468; Log10 Concentration −5.0
  Percent Growth: −81%
MDA-MB-468; Log10 Concentration −6.0
  Percent Growth: −43%
MDA-MB-468; Log10 Concentration −7.0
  Percent Growth: 86%
MDA-MB-468; Log10 Concentration −8.0
  Percent Growth: 100%
MDA-MB-468; molar
  GI50: 190 nM
  TGI: 4.62E−7
MDA-MB-468; read-out: LC50, molar
  CC50: 1500 nM
T-47D; Log10 Concentration −4.0
  Percent Growth: −49%
T-47D; Log10 Concentration −5.0
  Percent Growth: −46%
T-47D; Log10 Concentration −6.0
  Percent Growth: −4%
T-47D; Log10 Concentration −7.0
  Percent Growth: 100%
T-47D; Log10 Concentration −8.0
  Percent Growth: 92%
T-47D; molar
  GI50: 323 nM
  TGI: 9.15E−7
T-47D; read-out: LC50, molar
  CC50: > 100000 nM
DU-145; Log10 Concentration −4.0
  Percent Growth: −100%
DU-145; Log10 Concentration −5.0
  Percent Growth: −99%
DU-145; Log10 Concentration −6.0
  Percent Growth: 56%
DU-145; Log10 Concentration −7.0
  Percent Growth: 105%
DU-145; Log10 Concentration −8.0
  Percent Growth: 103%
DU-145; molar
  GI50: 1100 nM
  TGI: 2.30E−6
DU-145; read-out: LC50, molar
  CC50: 4810 nM
HS 578T; Log10 Concentration −4.0
  Percent Growth: −26%
HS 578T; Log10 Concentration −5.0
  Percent Growth: −5%
HS 578T; Log10 Concentration −6.0
  Percent Growth: 54%
HS 578T; Log10 Concentration −7.0
  Percent Growth: 90%
HS 578T; Log10 Concentration −8.0
  Percent Growth: 94%
HS 578T; molar
  GI50: 1170 nM
  TGI: 8.25E−6
HS 578T; read-out: LC50, molar
  CC50: > 100000 nM
HOP-92; Log10 Concentration −4.0
  Percent Growth: −88%
HOP-92; Log10 Concentration −5.0
  Percent Growth: −92%
HOP-92; Log10 Concentration −6.0
  Percent Growth: −26%
HOP-92; Log10 Concentration −7.0
  Percent Growth: 75%
HOP-92; Log10 Concentration −8.0
  Percent Growth: 87%
HOP-92; molar
  GI50: 177 nM
  TGI: 5.51E−7
HOP-92; read-out: LC50, molar
  CC50: 2290 nM
NCI-H226; Log10 Concentration −4.0
  Percent Growth: −57%
NCI-H226; Log10 Concentration −5.0
  Percent Growth: −46%
NCI-H226; Log10 Concentration −6.0
  Percent Growth: 83%
NCI-H226; Log10 Concentration −7.0
  Percent Growth: 89%
NCI-H226; Log10 Concentration −8.0
  Percent Growth: 93%
NCI-H226; molar
  GI50: 1810 nM
  TGI: 4.39E−6
A549/ATCC; Log10 Concentration −4.0
  Percent Growth: −84%
A549/ATCC; Log10 Concentration −5.0
  Percent Growth: −72%
A549/ATCC; Log10 Concentration −6.0
  Percent Growth: 87%
A549/ATCC; Log10 Concentration −7.0
  Percent Growth: 96%
A549/ATCC; Log10 Concentration −8.0
  Percent Growth: 96%
A549/ATCC; molar
  GI50: 1700 nM
  TGI: 3.51E−6
A549/ATCC; read-out: LC50, molar
  CC50: 7260 nM
786-0; Log10 Concentration −4.0
  Percent Growth: −81%
786-0; Log10 Concentration −5.0
  Percent Growth: −81%
786-0; Log10 Concentration −6.0
  Percent Growth: −32%
786-0; Log10 Concentration −7.0
  Percent Growth: 95%
786-0; Log10 Concentration −8.0
  Percent Growth: 95%
786-0; molar
  GI50: 244 nM
786-0; read-out: LC50, molar
  CC50: 2930 nM
HT29; Log10 Concentration −4.0
  Percent Growth: −84%
HT29; Log10 Concentration −5.0
  Percent Growth: −80%
HT29; Log10 Concentration −6.0
  Percent Growth: −33%
HT29; Log10 Concentration −7.0
  Percent Growth: 97%
HT29; Log10 Concentration −8.0
  Percent Growth: 100%
HT29; molar
  GI50: 228 nM
HT29; read-out: LC50, molar
  CC50: 2270 nM
OVCAR-8; Log10 Concentration −4.0
  Percent Growth: −55%
OVCAR-8; Log10 Concentration −5.0
  Percent Growth: −51%
OVCAR-8; Log10 Concentration −6.0
  Percent Growth: 6%
OVCAR-8; Log10 Concentration −7.0
  Percent Growth: 96%
OVCAR-8; Log10 Concentration −8.0
  Percent Growth: 100%
OVCAR-8; molar
  GI50: 326 nM
OVCAR-8; read-out: LC50, molar
  CC50: 6770 nM
TK-10; Log10 Concentration −4.0
  Percent Growth: −99%
TK-10; Log10 Concentration −5.0
  Percent Growth: −98%
TK-10; Log10 Concentration −6.0
  Percent Growth: −7%
TK-10; Log10 Concentration −7.0
  Percent Growth: 97%
TK-10; Log10 Concentration −8.0
  Percent Growth: 92%
TK-10; molar
  GI50: 284 nM
  TGI: 8.56E−7
TK-10; read-out: LC50, molar
  CC50: 2950 nM
OVCAR-3; Log10 Concentration −4.0
  Percent Growth: −100%
OVCAR-3; Log10 Concentration −5.0
  Percent Growth: −98%
OVCAR-3; Log10 Concentration −6.0
  Percent Growth: 3%
OVCAR-3; Log10 Concentration −7.0
  Percent Growth: 101%
OVCAR-3; Log10 Concentration −8.0
  Percent Growth: 102%
OVCAR-3; molar
  GI50: 330 nM
  TGI: 1.08E−6
OVCAR-3; read-out: LC50, molar
  CC50: 3320 nM
LOX IMVI; Log10 Concentration −4.0
  Percent Growth: −81%
LOX IMVI; Log10 Concentration −5.0
  Percent Growth: −90%
LOX IMVI; Log10 Concentration −6.0
  Percent Growth: −69%
LOX IMVI; Log10 Concentration −7.0
  Percent Growth: 90%
LOX IMVI; Log10 Concentration −8.0
  Percent Growth: 98%
LOX IMVI; molar
  GI50: 178 nM
LOX IMVI; read-out: LC50, molar
  CC50: 761 nM
NCI/ADR-RES; Log10 Concentration −4.0
  Percent Growth: −57%
NCI/ADR-RES; Log10 Concentration −5.0
  Percent Growth: 21%
NCI/ADR-RES; Log10 Concentration −6.0
  Percent Growth: 92%
NCI/ADR-RES; Log10 Concentration −7.0
  Percent Growth: 111%
NCI/ADR-RES; Log10 Concentration −8.0
  Percent Growth: 103%
NCI/ADR-RES; molar
  GI50: 3910 nM
  TGI: 1.87E−5
NCI/ADR-RES; read-out: LC50, molar
  CC50: 82000 nM
NCI-H23; Log10 Concentration −4.0
  Percent Growth: −78%
NCI-H23; Log10 Concentration −5.0
  Percent Growth: −85%
NCI-H23; Log10 Concentration −6.0
  Percent Growth: 27%
NCI-H23; Log10 Concentration −7.0
  Percent Growth: 100%
NCI-H23; Log10 Concentration −8.0
  Percent Growth: 100%
NCI-H23; molar
  GI50: 485 nM
  TGI: 1.74E−6
NCI-H23; read-out: LC50, molar
  CC50: 4860 nM
M9ENL AML cell lines
  CC50: 1000 nM
MCF7; Log10 Concentration −4.0
  Percent Growth: −54%
MCF7; Log10 Concentration −5.0
  Percent Growth: −75%
MCF7; Log10 Concentration −6.0
  Percent Growth: −7%
MCF7; Log10 Concentration −7.0
  Percent Growth: 80%
MCF7; Log10 Concentration −8.0
  Percent Growth: 89%
MCF7; molar
  GI50: 221 nM
  TGI: 8.33E−7
MCF7; read-out: LC50, molar
  CC50: 4300 nM
M14; Log10 Concentration −4.0
  Percent Growth: −76%
M14; Log10 Concentration −5.0
  Percent Growth: −71%
M14; Log10 Concentration −6.0
  Percent Growth: −10%
M14; Log10 Concentration −7.0
  Percent Growth: 95%
M14; Log10 Concentration −8.0
  Percent Growth: 95%
M14; molar
  GI50: 272 nM
  TGI: 8.00E−7
M14; read-out: LC50, molar
  CC50: 4530 nM
SN12C; Log10 Concentration −4.0
  Percent Growth: −59%
SN12C; Log10 Concentration −5.0
  Percent Growth: −65%
SN12C; Log10 Concentration −6.0
  Percent Growth: −7%
SN12C; Log10 Concentration −7.0
  Percent Growth: 91%
SN12C; Log10 Concentration −8.0
  Percent Growth: 100%
SN12C; molar
  GI50: 264 nM
SN12C; read-out: LC50, molar
  CC50: 5490 nM
MOLT-4; Log10 Concentration −4.0
  Percent Growth: −34%
MOLT-4; Log10 Concentration −5.0
  Percent Growth: −27%
MOLT-4; Log10 Concentration −6.0
  Percent Growth: 2%
MOLT-4; Log10 Concentration −7.0
  Percent Growth: 101%
MOLT-4; Log10 Concentration −8.0
  Percent Growth: 100%
MOLT-4; molar
  GI50: 330 nM
  TGI: 1.18E−6
MOLT-4; read-out: LC50, molar
  CC50: > 100000 nM
RXF 393; Log10 Concentration −4.0
  Percent Growth: −76%
RXF 393; Log10 Concentration −5.0
  Percent Growth: −92%
RXF 393; Log10 Concentration −6.0
  Percent Growth: −82%
RXF 393; Log10 Concentration −7.0
  Percent Growth: 85%
RXF 393; Log10 Concentration −8.0
  Percent Growth: 96%
RXF 393; molar
  GI50: 162 nM
  TGI: 3.22E−7
RXF 393; read-out: LC50, molar
  CC50: 640 nM
